Experimental data as given in patent publication US10077237B2 (Sanofi, priority 2013, dated 2018).
Values joined by “and” are separate entries in the source; they are usually repeats but may differ in a detail not shown here. Equal values may be shown once.

Biological target: T1, recombinant human AMPK complex, containing α2β1γ2 (Homo sapiens, UniProt P54646+Q9Y478)
T1 construct: hsAMPKα2-552-His, hsAMPKβ1-2-270 and hsAMPKγ-2-569 respectively; hsAMPKβ1-2-270; hsAMPKγ-2-569; His (C); made in house; host or cells: Spodoptera frugiperda Sf21 (baculovirus)
Experiment: AMPK in vitro activation assay (HTRF)
Assay type: biochemical
Conditions: for EC50: HTRF, recombinant human α2β1γ2 AMPK, 200 μM ATP, biotinylated ACC-CREBp peptide, repeat determinations on separate lines
How it was run: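 Sf21-expressed, Ni-NTA partially purified α2β1γ2 complex preincubated 30 min at room temperature with compound (0.5% DMSO) in HEPES pH 7.0, MgCl2, DTT. Reaction was started with a solution holding 200 μM ATP and 2 or 0.08 μM biotinylated ACC-CREBp peptide, run 45 min at 37° C, then read by HTRF with anti-pS133-CREB; EC50 from percent over basal.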

[1] = potentiation of AMPK activity as percent over the basal signal (without compound)

T1 sequence (P54646 2-552): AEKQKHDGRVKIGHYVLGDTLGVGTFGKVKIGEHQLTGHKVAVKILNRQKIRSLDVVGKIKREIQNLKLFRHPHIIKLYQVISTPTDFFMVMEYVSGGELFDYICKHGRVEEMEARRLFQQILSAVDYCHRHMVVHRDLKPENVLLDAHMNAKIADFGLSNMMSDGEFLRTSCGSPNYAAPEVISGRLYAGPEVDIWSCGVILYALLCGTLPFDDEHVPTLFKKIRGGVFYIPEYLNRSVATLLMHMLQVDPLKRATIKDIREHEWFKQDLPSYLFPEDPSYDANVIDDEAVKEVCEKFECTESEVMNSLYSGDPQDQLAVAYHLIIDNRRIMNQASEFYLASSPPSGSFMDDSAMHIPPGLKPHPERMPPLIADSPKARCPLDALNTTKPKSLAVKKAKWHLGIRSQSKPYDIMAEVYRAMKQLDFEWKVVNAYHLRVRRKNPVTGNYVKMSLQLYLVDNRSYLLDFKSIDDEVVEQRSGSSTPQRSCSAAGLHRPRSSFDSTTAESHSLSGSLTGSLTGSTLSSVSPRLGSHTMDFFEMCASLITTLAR
T1 sequence (Q9Y478 2-270): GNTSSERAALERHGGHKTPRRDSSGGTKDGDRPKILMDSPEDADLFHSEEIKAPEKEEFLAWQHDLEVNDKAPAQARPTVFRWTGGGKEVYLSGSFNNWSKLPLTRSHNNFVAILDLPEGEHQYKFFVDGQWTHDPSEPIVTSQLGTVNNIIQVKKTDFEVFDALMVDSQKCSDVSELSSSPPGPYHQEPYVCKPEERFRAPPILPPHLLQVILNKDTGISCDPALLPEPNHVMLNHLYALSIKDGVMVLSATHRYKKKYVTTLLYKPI
T1 sequence (Q9UGJ0 2-569 partner limits assumed): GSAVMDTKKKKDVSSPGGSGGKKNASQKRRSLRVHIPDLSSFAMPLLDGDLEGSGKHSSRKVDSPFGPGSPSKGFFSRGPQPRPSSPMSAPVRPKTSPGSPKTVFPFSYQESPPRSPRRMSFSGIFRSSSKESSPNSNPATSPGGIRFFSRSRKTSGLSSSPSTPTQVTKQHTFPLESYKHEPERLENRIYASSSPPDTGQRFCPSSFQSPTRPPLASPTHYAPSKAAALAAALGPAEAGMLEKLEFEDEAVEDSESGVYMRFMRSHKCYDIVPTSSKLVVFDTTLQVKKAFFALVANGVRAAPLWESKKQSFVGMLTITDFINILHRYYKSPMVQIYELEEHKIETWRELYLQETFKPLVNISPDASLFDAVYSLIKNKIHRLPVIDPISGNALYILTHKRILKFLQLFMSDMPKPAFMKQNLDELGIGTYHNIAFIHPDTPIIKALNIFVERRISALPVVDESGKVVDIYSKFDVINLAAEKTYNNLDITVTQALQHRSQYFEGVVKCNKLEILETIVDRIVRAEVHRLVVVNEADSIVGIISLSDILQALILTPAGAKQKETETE

Structure (SMILES): CC(C)(C)c1cc(C(O)=C2C(=O)Nc3cc(Cl)c(-c4ccc(N5CCOCC5)cc4)cc32)on1 [Compound 112, 3-[(3-tert-butylisoxazol-5-yl)-hydroxy-methylene]6-chloro-5-(4-morpholinophenyl)indolin-2-one]
- EC50: 13 nM
- Emax [1]: 197%

Structure (SMILES): O=C1Nc2cc(Cl)c(-c3ccc4ccccc4c3)cc2C1=C(O)c1cccc(F)c1 [Compound 11, 6-Chloro-3-[1-(3-fluoro-phenyl)-1-hydroxy-methylidene]-5-naphthalen-2-yl-1,3-dihydro-indol-2-one]
- EC50: 4000 nM
- Emax [1]: 95%

Structure (SMILES): COc1cccc(-c2ccc(-c3cc4c(cc3Cl)NC(=O)C4=C(O)c3cc(OCCN4CCOCC4)no3)cc2)c1O [Compound 90, 6-chloro-5-[4-(2-hydroxy-3-methoxy-phenyl)phenyl]-3-[hydroxy-[3-(2-morpholinoethoxy)isoxazol-5-yl]methylene]indolin-2-one]
- EC50: 0.1 nM and 0.2 nM

Structure (SMILES): Cc1cc(C(O)=C2C(=O)Nc3cc(Cl)c(-c4ccc(OCc5ncccn5)cc4)cc32)on1 [Compound 101, 6-chloro-3-[hydroxy-(3-methylisoxazol-5-yl)methylene]-5-[4-(pyrimidin-2-ylmethoxy)phenyl]indolin-2-one]
- EC50: 63 nM
- Emax [1]: 159%

Structure (SMILES): O=C1Nc2cc(Cl)c(-c3ccc(N4CCOCC4)cc3)cc2C1=C(O)c1ccno1 [Compound 59, 6-Chloro-3-[1-hydroxy-1-isoxazol-5-yl-methylidene]-5-(4-morpholin-4-yl-phenyl)-1,3-dihydro-indol-2-one]
- EC50: 29 nM
- Emax [1]: 245%

Structure (SMILES): O=C1Nc2cc(Cl)c(-c3ccc(C4(CO)CC4)cc3)cc2C1=C(O)c1cc(F)cc(F)c1 [Compound 144, 6-chloro-3-[(3,5-difluorophenyl)hydroxy-methylene]-5-[4-[1-(hydroxymethyl)cyclopropyl]phenyl]indolin-2-one]
- EC50: 0.9 nM
- Emax [1]: 210%

Structure (SMILES): O=C1Nc2cc(Cl)c(-c3ccc(N4CCOCC4)cc3)cc2C1=C(O)c1ccc(OC(F)(F)F)c(F)c1 [Compound 95, 6-chloro-3-[[3-fluoro-4-(trifluoromethoxy)phenyl]-hydroxy-methylene]-5-(4-morpholinophenyl)indolin-2-one]
- EC50: 396 nM
- Emax [1]: 159%

Structure (SMILES): COc1cc(C(O)=C2C(=O)Nc3cc(Cl)c(-c4ccc(-c5cccc(OC)c5O)cc4)cc32)on1 [Compound 12]
- EC50: 1 nM
- Emax [1]: 172%

Structure (SMILES): COc1c(F)cc(C(O)=C2C(=O)Nc3cc(Cl)c(-c4ccc(N5CCOCC5)cc4)cc32)cc1Cl [Compound 97, 6-chloro-3-[(3-chloro-5-fluoro-4-methoxy-phenyl)hydroxy-methylene]-5-(4-morpholinophenyl)indolin-2-one]
- EC50: 41 nM
- Emax [1]: 185%

Structure (SMILES): Cc1ccc(C(O)=C2C(=O)Nc3cc(Cl)c(-c4ccc(C5(CO)CC5)cc4)cc32)s1 [Compound 123, 6-chloro-5-[4-[1-(hydroxymethyl)cyclopropyl]phenyl]-3-[hydroxy-(5-methyl-2-thienyl)methylene]indolin-2-one]
- EC50: 0.4 nM
- Emax [1]: 272%

Structure (SMILES): O=C1Nc2cc(Cl)c(-c3ccc(C4(CO)CC4)cc3)cc2C1=C(O)c1ccc(Cl)s1 [Compound 130, 6-chloro-3-[(5-chloro-2-thienyl)hydroxy-methylene]-5-[4-[1-(hydroxymethyl)cyclopropyl]phenyl]indolin-2-one]
- EC50: 9 nM
- Emax [1]: 373%

Structure (SMILES): Cc1nc(C)c(C(O)=C2C(=O)Nc3cc(Cl)c(-c4ccc(N5CCOCC5)cc4)cc32)s1 [Compound 15, 6-Chloro-3-[1-(2,4-dimethyl-thiazol-5-yl)-1-hydroxy-methylidene]-5-(4-morpholin-4-yl-phenyl)-1,3-dihydro-indol-2-one]
- EC50: 27 nM
- Emax [1]: 257%

Structure (SMILES): COc1cc(C(O)=C2C(=O)Nc3cc(Cl)c(-c4ccc(C5(O)CCOCC5)cc4)cc32)on1 [Compound 89, 6-chloro-3-[hydroxy-(3-methoxyisoxazol-5-yl)methylene]-5-[4-(4-hydroxytetrahydropyran-4-yl)phenyl]indolin-2-one]
- EC50: 7 nM
- Emax [1]: 203%

Structure (SMILES): Cc1cc(C(O)=C2C(=O)Nc3cc(Cl)c(-c4ccc(C5=CCOCC5)cc4)cc32)sn1 [Compound 48, 6-Chloro-5-[4-(3,6-dihydro-2H-pyran-4-yl)-phenyl]-3-[1-hydroxy-1-(3-methyl-isothiazol-5-yl)-methylidene]-1,3-dihydro-indol-2-one]
- EC50: 95 nM
- Emax [1]: 87%

Structure (SMILES): O=C1Nc2cc(Cl)c(-c3ccc(C4(CO)CC4)cc3)cc2C1=C(O)c1cc2ncccc2o1 [Compound 169, 6-chloro-3-[furo[3,2-b]pyridin-2-yl(hydroxy)methylene]-5-[4-[1-(hydroxymethyl)cyclopropyl]phenyl]indolin-2-one]
- EC50: 0.1 nM
- Emax [1]: 172%

Structure (SMILES): COc1cc(C(O)=C2C(=O)Nc3cc(Cl)c(-c4ccc(N5CCC(O)C5)cc4)cc32)on1 (stereo not drawn) [Compound 156, 6-chloro-3-[hydroxy-(3-methoxyisoxazol-5-yl)methylene]-5-[4-(3-hydroxypyrrolidin-1-yl)phenyl]indolin-2-one]
- EC50: 2 nM
- Emax [1]: 229%

Structure (SMILES): COc1ccc(-c2cc3c(cc2Cl)NC(=O)C3=C(O)c2cc(C)no2)cc1 [Compound 20, 6-Chloro-3-[1-hydroxy-1-(3-methyl-isoxazol-5-yl)-methylidene]-5-(4-methoxy-phenyl)-1,3-dihydro-indol-2-one]
- EC50: 410 nM
- Emax [1]: 223%

Structure (SMILES): Cc1cc(C(O)=C2C(=O)Nc3cc(Cl)c(-c4ccc(C5(CO)CC5)s4)cc32)on1 [Compound 45, 6-Chloro-5-[5-(1-hydroxymethyl-cyclopropyl)-thiophen-2-yl]-3-[1-hydroxy-1-(3-methyl-isoxazol-5-yl)-methylidene]-1,3-dihydro-indol-2-one]
- EC50: 230 nM
- Emax [1]: 155%

Structure (SMILES): Cc1cc(C(O)=C2C(=O)Nc3cc(Cl)c(-c4ccc(N(C)C)cc4)cc32)on1 [Compound 1, 6-Chloro-5-(4-dimethylamino-phenyl)-3-[1-hydroxy-1-(3-methyl-isoxazol-5-yl)-methylidene]-1,3-dihydro-indol-2-one]
- EC50: 21 nM
- α2β1γ2 AMPK Emax [1]: (124 +/− 11) %

Structure (SMILES): O=C1Nc2cc(Cl)c(-c3ccc(C4(CO)CC4)cc3)cc2C1=C(O)c1ccncc1F [Compound 160, 6-chloro-3-[(3-fluoro-4-pyridyl)hydroxy-methylene]-5-[4-[1-(hydroxymethyl)cyclopropyl]phenyl]indolin-2-one]
- EC50: 0.1 nM
- Emax [1]: 191%

Structure (SMILES): COc1cc(C(O)=C2C(=O)Nc3cc(Cl)c(-c4ccc(N5CCCC5)cc4)cc32)on1 [Compound 137, 6-chloro-3-[hydroxy-(3-methoxyisoxazol-5-yl)methylene]-5-(4-pyrrolidin-1-ylphenyl)indolin-2-one]
- EC50: 16 nM
- Emax [1]: 271%

Structure (SMILES): O=C1Nc2cc(Cl)c(-c3ccc(C4(CO)CC4)cc3)cc2C1=C(O)c1cccs1 [Compound 114, 6-chloro-5-[4-[1-(hydroxymethyl)cyclopropyl]phenyl]-3-[hydroxy(2-thienyl)methylene]indolin-2-one]
- EC50: 4 nM
- Emax [1]: 143%

Structure (SMILES): COc1cc(C(O)=C2C(=O)Nc3cc(Cl)c(-c4ccc(C5CC(OC)C5)cc4)cc32)on1 (stereo not drawn) [Compound 165, 6-chloro-3-[hydroxy-(3-methoxyisoxazol-5-yl)methylene]-5-[4-(3-methoxycyclobutyl)phenyl]indolin-2-one]
- EC50: 18 nM
- Emax [1]: 218%
